Measured values taken from patent publication US10458996B1, “Methods for determining clinical response to TNF-alpha and/or JAK inhibitors in subjects with inflammatory diseases” (Beth Israel Deaconess Medical Center, Inc., priority 2016, dated 2019).

Test system: biopsy samples from patients with IBD
Experiment: Cytokine profiles of patient biopsy cultures in response to treatment with various agents (Example 2)
Format: cell-based, human
Conditions: patient ID 13-562 (FIG. 5F)
Procedure: From each patient, intestinal mucosal biopsies were minced into several pieces and distributed in 8 wells of a 96-well plate in 250 μl of Dulbecco's Modified Eagle Medium (DMEM) supplemented with 10% FBS and antibiotic-antimycotic (Life Technologies, CA). Half of the cultures were treated with infliximab (REMICADE®; 0.5 mg/ml; Janssen Biotech, Inc, NJ) and the plate was incubated at 37° C. in a humidified chamber of 95% O2/5% CO2 for 18 hours. Culture supernatants were collected, filtered and stored at −80° C. […] Signal detection and analysis was performed by MAGPIX® (Luminex Corporation, TX).
[…] with 0.5 mg/ml infliximab (an anti-TNFα antibody; therapeutic agent), 100 μM tofacitinib (a Janus kinase (JAK) inhibitor) and an experimental drug (at 10 μM concentration) in accordance with the protocol described above. Following treatment, biopsy samples were obtained and analyzed for cytokine profiles using […].
Additional similar experiments were conducted for different patients using the same or different therapeutic agents, and the results are shown in FIG. 5D-5H.

## vedolizumab
  changes in cytokine profile: only one cytokine expression down-regulation and four cytokine expression up-regulation
  ex vivo response of patient: ex vivo non-responder
